Reference: ChEMBL document CHEMBL5331096, “Pseudo-irreversible butyrylcholinesterase inhibitors: Structure-activity relationships, computational and crystallographic study of the N-dialkyl O-arylcarbamate warhead” (Eur J Med Chem, 2023)
pIC50, pKi: −log10 of the molar value. Calls of active or inactive are those of the source. No cut-off for these calls is given here.

How the values were obtained:
[1] = molecular target: T1, Acetylcholinesterase (Homo sapiens, UniProt P22303); assay: Time dependent inhibition of human AChE using acetylthiocholine iodide as substrate preincubated for 5 mins followed by substrate addition and measured for 2 mins by spectrophotometry based Ellman's method; conditions: time 7.0 min
T1 sequence (P22303 whole entry): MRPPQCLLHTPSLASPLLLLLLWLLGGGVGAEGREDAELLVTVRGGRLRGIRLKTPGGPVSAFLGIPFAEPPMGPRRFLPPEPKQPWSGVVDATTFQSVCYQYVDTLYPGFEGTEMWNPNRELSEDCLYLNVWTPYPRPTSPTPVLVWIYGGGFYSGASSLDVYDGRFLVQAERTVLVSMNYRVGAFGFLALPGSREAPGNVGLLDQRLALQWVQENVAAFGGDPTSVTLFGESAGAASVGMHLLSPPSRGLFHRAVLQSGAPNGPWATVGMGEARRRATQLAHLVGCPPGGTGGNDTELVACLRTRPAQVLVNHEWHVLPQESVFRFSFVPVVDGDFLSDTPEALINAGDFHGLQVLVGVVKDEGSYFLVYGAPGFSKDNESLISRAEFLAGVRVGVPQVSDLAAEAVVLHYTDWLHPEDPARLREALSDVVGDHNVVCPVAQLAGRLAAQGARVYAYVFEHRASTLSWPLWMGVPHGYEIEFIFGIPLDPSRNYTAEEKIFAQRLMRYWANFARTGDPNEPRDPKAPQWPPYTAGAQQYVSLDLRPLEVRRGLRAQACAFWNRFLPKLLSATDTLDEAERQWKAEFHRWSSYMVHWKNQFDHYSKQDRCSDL

[2] = molecular target: T2, Cholinesterase (Homo sapiens, UniProt P06276); assay: Binding affinity to human BChE assessed as gibbs free energy change
T2 sequence (P06276 whole entry): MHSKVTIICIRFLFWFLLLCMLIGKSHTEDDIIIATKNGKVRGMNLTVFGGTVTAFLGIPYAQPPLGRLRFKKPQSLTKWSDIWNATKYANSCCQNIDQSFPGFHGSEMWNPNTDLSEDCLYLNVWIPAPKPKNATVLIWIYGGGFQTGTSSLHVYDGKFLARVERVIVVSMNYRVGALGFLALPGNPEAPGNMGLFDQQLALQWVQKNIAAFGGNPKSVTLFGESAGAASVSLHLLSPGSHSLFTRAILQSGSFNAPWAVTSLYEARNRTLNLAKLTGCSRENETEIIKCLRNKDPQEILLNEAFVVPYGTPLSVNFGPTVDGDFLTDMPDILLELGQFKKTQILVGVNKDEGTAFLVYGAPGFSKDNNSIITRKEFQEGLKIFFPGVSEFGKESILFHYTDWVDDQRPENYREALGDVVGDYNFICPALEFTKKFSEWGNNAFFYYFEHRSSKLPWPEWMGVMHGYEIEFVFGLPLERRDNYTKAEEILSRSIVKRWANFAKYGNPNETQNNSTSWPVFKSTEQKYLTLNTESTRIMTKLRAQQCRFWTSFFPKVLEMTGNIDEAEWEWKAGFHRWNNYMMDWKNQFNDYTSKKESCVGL

[3] = molecular target: T2, Cholinesterase; assay: Time dependent inhibition of human BChE using butyrylthiocholine iodide as substrate preincubated for 5 mins followed by substrate addition and measured for 2 mins by spectrophotometry based Ellman's method; conditions: time 7.0 min
[4] = molecular target: T2, Cholinesterase; assay: Inhibition of human BChE using butyrylthiocholine iodide as substrate preincubated for 5 mins followed by substrate addition and measured for 2 mins by spectrophotometry based Ellman's method
[5] = molecular target: T2, Cholinesterase; assay: Binding affinity to human BChE assessed as half life incubated for 1 hr by Ellman's method
[6] = molecular target: T2, Cholinesterase; assay: Binding affinity to human BChE assessed as decarbamoylation rate constant at 25 degree C incubated for 1 hr by Ellman's method
[7] = molecular target: T1, Acetylcholinesterase; assay: Inhibition of human AChE using acetylthiocholine iodide as substrate preincubated for 5 mins followed by substrate addition and measured for 2 mins by spectrophotometry based Ellman's method
[8] = molecular target: T2, Cholinesterase; assay: Time dependent inhibition of human BChE using butyrylthiocholine iodide as substrate preincubated for 30 mins followed by substrate addition and measured for 2 mins by spectrophotometry based Ellman's method; conditions: time 32.0 min
[9] = molecular target: T1, Acetylcholinesterase; assay: Time dependent inhibition of human AChE using acetylthiocholine iodide as substrate preincubated for 30 mins followed by substrate addition and measured for 2 mins by spectrophotometry based Ellman's method; conditions: time 32.0 min
[10] = molecular target: T2, Cholinesterase; assay: Inhibition of human BChE using butyrylthiocholine iodide as substrate preincubated for 30 mins followed by substrate addition and measured for 2 mins by spectrophotometry based Ellman's method
[11] = molecular target: T1, Acetylcholinesterase; assay: Inhibition of human AChE assessed as residual activity using acetylthiocholine iodide as substrate at 100 uM preincubated for 30 mins followed by substrate addition and measured for 2 mins by spectrophotometry based Ellman's method relative to control; conditions: time 32.0 min
[12] = molecular target: T2, Cholinesterase; assay: Binding affinity to human BChE assessed as pseudo-first order inhibition rate at 20 nM by Ellman's method
[13] = molecular target: T2, Cholinesterase; assay: Binding affinity to human BChE assessed as carbamoylation rate constant by Ellman's method
[14] = test system: SH-SY5Y; assay: Cytotoxicity against human SH-SY5Y cells assessed as inhibition of cell growth measured after 48 hrs by MTS assay; type: functional, cell-based
[15] = molecular target: Cholinesterases; ACHE & BCHE (Homo sapiens) (UniProt P06276+P22303); assay: Selectivity ratio of IC50 for human AChE to IC50 for human BChE; type: protein assay
Chain of Cholinesterases; ACHE & BCHE (Homo sapiens) (P06276 whole entry, looked up): as the sequence (P06276 whole entry) above
Chain of Cholinesterases; ACHE & BCHE (Homo sapiens) (P22303 whole entry, looked up): as the sequence (P22303 whole entry) above

[16] = test system: HepG2; assay: Cytotoxicity against human HepG2 cells assessed as inhibition of cell growth measured after 48 hrs by MTS assay; type: functional, cell-based; conditions: HepG2, 48 h
[17] = molecular target: T2, Cholinesterase; assay: Binding affinity to human BChE assessed as pseudo-first order inhibition rate at 50 nM by Ellman's method
[18] = molecular target: T2, Cholinesterase; assay: Binding affinity to human BChE assessed as inhibition constant
[19] = molecular target: T2, Cholinesterase; assay: Binding affinity to human BChE assessed as pseudo-first order inhibition rate at 10 nM by Ellman's method
[20] = molecular target: T2, Cholinesterase; assay: Binding affinity to human BChE assessed as pseudo-first order inhibition rate at 5 nM by Ellman's method
[21] = molecular target: T1, Acetylcholinesterase; assay: Binding affinity to recombinant human AChE assessed as appearance of fluorescent bands at 10 uM incubated for 4 hrs in presence of BW284c51 by Western blot analysis
[22] = molecular target: T2, Cholinesterase; assay: Binding affinity to human BChE plasma assessed as appearance of fluorescent bands at 10 uM incubated for 30 mins by Western blot analysis; type: cell-free
[23] = molecular target: T2, Cholinesterase; assay: Binding affinity to human BChE plasma assessed as appearance of fluorescent bands at 10 uM incubated for 30 mins in presence of isoOMPA by Western blot analysis; type: cell-free
[24] = molecular target: T2, Cholinesterase; assay: Binding affinity to human BChE plasma assessed as appearance of fluorescent bands at 10 uM incubated for 30 mins in presence of BW284c51 by Western blot analysis; type: cell-free
[25] = molecular target: T2, Cholinesterase; assay: Binding affinity to recombinant human BChE assessed as appearance of fluorescent bands at 10 uM incubated for 4 hrs by Western blot analysis
[26] = molecular target: T2, Cholinesterase; assay: Binding affinity to human BChE plasma assessed as appearance of fluorescent bands at 10 uM incubated for 30 mins in presence of ethopropazine by Western blot analysis; type: cell-free
[27] = molecular target: T1, Acetylcholinesterase; assay: Binding affinity to recombinant human AChE assessed as appearance of fluorescent bands at 10 uM incubated for 4 hrs by Western blot analysis

CN(CCC1CCCCCC1)Cc1c[nH]c2c(OC(=O)N(C)Cc3ccccc3)cccc12
inhibition [1]: Active
deltaG [2]: 25.2 kcal/mol
inhibition [3]: Active
pIC50 [4]: 7.94
T1/2 [5]: 92.2 h
K [6]: 0.007 h⁻¹
pIC50 [7]: 6.27

CCN(CC)C(=O)Oc1cccc2c(CN(C)CCC3CCCCCC3)c[nH]c12
inhibition [1]: inactive
deltaG [2]: 25.9 kcal/mol
inhibition [3]: Active
pIC50 [4]: 7.22
T1/2 [5]: 318 h
K [6]: 0.002 h⁻¹
pIC50 [7]: 5.25

C#CCN(CC)C(=O)Oc1cccc2c(CN(C)CCC3CCCCCC3)c[nH]c12
inhibition [1]: Active
inhibition [3]: Active
pIC50 [4]: 7.66
pIC50 [7]: 5.12

CN(CCC1CCCCCC1)Cc1c[nH]c2c(OC(=O)N3CCOCC3)cccc12
inhibition [1]: Active
pIC50 [4]: 7.94
pIC50 [7]: 5.45

CC(C)N(C)C(=O)Oc1cccc2c(CN(C)CCC3CCCCCC3)c[nH]c12
inhibition [1]: Active
inhibition [3]: Active
pIC50 [4]: 6.94
pIC50 [7]: 5.55

CN(CCC1CCCCCC1)Cc1c[nH]c2c(OC(=O)N(C)N(C)C)cccc12
inhibition [1]: Active
inhibition [3]: Active
pIC50 [4]: 7.88
pIC50 [7]: 5.25

CC(C)N(C(=O)Oc1cccc2cc[nH]c12)C(C)C
inhibition [8]: inactive
inhibition [9]: inactive
pIC50 [10]: 4.89
Activity [11]: 66.5%

CCN(C)C(=O)Oc1cccc2cc[nH]c12
inhibition [8]: Active
inhibition [9]: inactive
pIC50 [10]: 5.86
Activity [11]: 56.2%

CN(CCC1CCCCCC1)Cc1c[nH]c2c(OC(=O)N3CCCCC3)cccc12
inhibition [1]: Active
pIC50 [4]: 8.28
pIC50 [7]: 6.28

C#CCN(C)C(=O)Oc1cccc2c(CN(C)CCC3CCCCCC3)c[nH]c12
inhibition [1]: Active
deltaG [2]: 24.8 kcal/mol
pIC50 [4]: 8.11
T1/2 [5]: 49 h
K [6]: 0.014 h⁻¹
pIC50 [7]: 6.47

CC(C)N(C(=O)Oc1cccc2c(CN(C)CCC3CCCCCC3)c[nH]c12)C(C)C
inhibition [1]: inactive
inhibition [3]: inactive
pIC50 [4]: 6.64
pIC50 [7]: 5.33

C#CCN(CC#C)C(=O)Oc1cccc2c(CN(C)CCC3CCCCCC3)c[nH]c12
inhibition [1]: Active
deltaG [2]: 24 kcal/mol
pIC50 [4]: 7.48
T1/2 [5]: 11.2 h
K [6]: 0.062 h⁻¹
pIC50 [7]: 6.33

CN(CCC1CCCCCC1)Cc1c[nH]c2c(O)cccc12
pIC50 [4]: 6.43
pIC50 [7]: 4.94

CON(C)C(=O)Oc1cccc2c(CN(C)CCC3CCCCCC3)c[nH]c12
inhibition [1]: inactive
pIC50 [4]: 6.80
pIC50 [7]: 5.96

C#CCCCN(C)C(=O)Oc1cccc2c(CN(C)CCC3CCCCCC3)c[nH]c12
inhibition [1]: Active
deltaG [2]: 24.8 kcal/mol
inhibition [3]: Active
pIC50 [4]: 7.91
T1/2 [5]: 46.5 h
K [6]: 0.015 h⁻¹
pIC50 [7]: 5.97

CCN(C)C(=O)Oc1cccc2c(CN(C)CCC3CCCCCC3)c[nH]c12
inhibition [1]: Active
inhibition [3]: Active
pIC50 [4]: 7.98
pIC50 [7]: 5.17

C#CCN(C)C(=O)Oc1ccc2c(CN(C)CCC3CCCCCC3)c[nH]c2c1
inhibition [1]: inactive
inhibition [3]: inactive
pIC50 [4]: 7.99
pIC50 [7]: 5.84

CN(C)C(=O)Oc1cccc2cc[nH]c12
inhibition [8]: Active
inhibition [9]: Active
pIC50 [10]: 5.78
Activity [11]: 2.4%

C#CCN(C(=O)Oc1cccc2c(CN(C)CCC3CCCCCC3)c[nH]c12)C(C)C
inhibition [1]: inactive
inhibition [3]: inactive
pIC50 [4]: 7.09
pIC50 [7]: 5.27

CN(CCC1CCCCCC1)Cc1c[nH]c2c(OC(=O)N(C)C)cccc12
Kobs [12]: 1.85 min⁻¹
K [13]: 0.177 M⁻¹ s⁻¹
inhibition [1]: Active
deltaG [2]: 24 kcal/mol
inhibition [3]: Active
pIC50 [14]: 5.24
Ratio IC50 [15]: 300
pIC50 [4]: 8.75
pIC50 [16]: 5.15
T1/2 [5]: 13 h
Kobs [17]: 3.75 min⁻¹
K [6]: 0.053 h⁻¹
pKi [18]: 8.98
Kobs [19]: 0.677 min⁻¹
Kobs [20]: 0.447 min⁻¹
pIC50 [7]: 6.25

C#CCCCCCCCCCN(C)C(=O)Oc1cccc2c(CN(C)CCC3CCCCCC3)c[nH]c12
Activity [21]: inactive
inhibition [1]: Active
Activity [22]: Active
Activity [23]: inactive
Activity [24]: inactive
Activity [25]: Active
Activity [26]: inactive
inhibition [3]: Active
pIC50 [4]: 8.42
Activity [27]: Active
pIC50 [7]: 6.91

CN(CCC1CCCCCC1)Cc1c[nH]c2c(OC(=O)N(C)C(C)(C)C)cccc12
inhibition [1]: inactive
inhibition [3]: inactive
pIC50 [4]: 6.83
pIC50 [7]: 5.00

O=C(Oc1cccc2cc[nH]c12)N1CCOCC1
inhibition [8]: inactive
pIC50 [10]: 5.62
Activity [11]: 19.3%

CN(CCC1CCCCCC1)Cc1c[nH]c2cc(OC(=O)N(C)C)ccc12
inhibition [1]: Active
inhibition [3]: Active
pIC50 [4]: 7.34
pIC50 [7]: 5.17

CC(C)N(C(=O)Oc1ccc2c(CN(C)CCC3CCCCCC3)c[nH]c2c1)C(C)C
inhibition [1]: inactive
inhibition [3]: inactive
pIC50 [4]: 7.06
pIC50 [7]: 6.47
